Data from US7270820B2, “CD4+ T-lymphocyte-specific hepatitis C virus epitopes” (Immusystems GmbH, priority 2002, dated 2007).

Tested on: fresh peripheral blood mononuclear cells (PBMC) / HCV-specific CD4+ T-lymphocytes
Experiment: Lymphocyte proliferation assay (3H-thymidine incorporation) of PBMC stimulated with HCV peptides
Format: cell-based, human (patients with acute hepatitis C)
Conditions: of 16 independent tests
Source text: To solve the task, a unique patient collective was identified, namely patients with acute hepatitis C who reach a lasting or at least temporary virus elimination in over 50% of cases. In order to test all possible CD4+ T-cell epitopes, the whole virus was covered with overlapping synthetic peptides from 15 to 20 amino acids long. A standardised lymphocyte proliferation assay was used as the test system. In order to determine both the degree of conservation between various virus sub-types and also the binding promiscuity as regards the relevant genetic background of the patients, a formula was defined based on the frequency of detection of an epitope and the strength of the immune reaction in question.
The stimulation index (SI) is normally calculated from the raw data of a proliferation assay and represents the multiplication factor of the measured sample in comparison with the control. An SI of 3 is regarded as significant.
A special patient collective was chosen and examined for HCV specific CD4+ T-cell epitopes relevant for the healing of the disease. The patient collective, namely patients with acute hepatitis C, is difficult to identify, since, on the one hand, they occur with a frequency of approx. 1:100,000 in the German population and, on the other hand, only T-lymphocytes were tested in the acute phase of the disease. This means a considerable limitation in the number of usable samples. Finally, within this patient collective, only patients were considered who were able to clear the virus spontaneously or to control it temporarily (this is only approx. 60% of the patients with acute hepatitis C), since only here has the immune system successfully taken action against the virus.
As the test system, the so-called “proliferation assay” was carried out according to the following protocol: After density gradient centrifugation on Ficoll gradients of heparinised blood, the fresh peripheral blood mononuclear cells (PBMC) were isolated and suspended in a culture medium (RPMI1640, Gibco). 50 μl of this cell suspension (concentration of 1×10^6 cells per ml) were placed on sterile 96-well culture plates. The cells were stimulated by the addition of the peptides. The final concentration of the peptides was 10 μg/ml. The cell culture plates were cultivated over 5 days at 37° C. and 5% CO2, then mixed with ^3H-thymidine and the incorporation of the radioactive ^3H was measured as a measure of the cell stimulation.
In our studies, only peptide reactions were regarded as significant whose stimulation index (SI) was greater than 3 (3× higher compared with the controls, or the irrelevant peptides).
The impact factor (IF) is based on a points system which not only uses the frequency of relevant reactions, i.e. stimulation index (SI) greater than 3, as normal, but also takes into account the strength of these reactions.
[formula] where • n1 is the sum of the reactions with 3<SI<6, • n2 is the sum of the reactions with SI≧6 and • m is the number of tests against the peptide in question, whereby m≧15.

Row | Sequence | n1, sum of the reactions with 3<SI<6 | n2, sum of the reactions with SI≧6
1 | TITQLLKRLHQWINEDCSTP [EP007] | 4 | 2

Same assay, conditions: peptide 10 μg/ml, 5 days; calculated from n1 (reactions with 3<SI<6), n2 (SI≧6) and m tests, m≧15

Row | Sequence | IF (impact factor)
2 | GPRLGVRATRKTSER (Hepatitis C virus) [EP001] | 24.0
3 | THYVPESDAAARVTQILSSL [EP006] | 26.7
4 | ARSLTPCTCGSSDLY (Hepatitis C virus) [EP002] | 27.6
5 | GAQITGHVKNGSMRIVGPKT [EP009] | 23.3
6 | DVVCCSMSYTWTGALITPCA [EP017] | 23.3
7 | PLLESWKDPDYVPPVVHGCP [EP016] | 26.7
8 | CPCQVPAPEFFTEVDGVRLH [EP011] | 23.3
9 | TITQLLKRLHQWINEDCSTP [EP007] | 43.8
10 | MWKCLIRLKPTLHGP (Hepatitis C virus) [EP004] | 24.1
11 | VLVDILAGYGAGVAG (Hepatitis C virus) [EP005] | 24.1
12 | FTEVDGVRLHRYAPACKPLL [EP012] | 28.1
13 | TSMLTDPSHITAETAKRRLA [EP013] | 26.7
14 | CSGSWLRDVWDWICTVLTDF [EP008] | 23.3
15 | SSSASQLSAPSLKATCTTHH [EP014] | 23.3
16 | EVTRVGDFHYVTGMTTDNVK [EP010] | 21.9
17 | REVSVAAEILRKSRKFPPAM (Hepatitis C virus) [EP015] | 25.0
18 | SSDLYLVTRHADVIP (Hepatitis C virus) [EP003] | 23.2

Same assay, conditions: worked example in text, m=16 tests

Row | Sequence | impact factor
19 | TITQLLKRLHQWINEDCSTP [EP007] | 43.75
